Measurements as given in patent publication US20110166112A1, “METHOD FOR STIMULATING PLATELET PRODUCTION” (Eisai, Inc., priority 2009, published 2011).

Tested on: subjects with chronic ITP who completed 28 days of study treatment
Experiment: Phase 2 6-month rollover study of E5501: effectiveness (durable, transient, overall platelet response, maintenance, steroid use, upward dose titration)
Type: in vivo, human
Settings: for Decreased use of concomitant steroid medication by ≧50%, No / Decreased use of concomitant steroid medication by ≧50%, Yes / Permanently discontinued steroid use, No / Permanently discontinued steroid use, Yes: 6-month rollover, FAS subjects taking steroids at baseline; for subjects who required upward dose titration / durable response rate: 6-month treatment period; for Transient Platelet Response No, %: 'no' includes durable responders
Procedure: This study was a multicenter, parallel-group, rollover study of E5501 in subjects with chronic ITP who were enrolled in and completed 28 days' of study treatment. All subjects who completed the previous study and otherwise met the eligibility criteria for this rollover protocol were enrolled.
Subjects who rolled over from the previous study were treated for an additional 6 months after completing previous study.
Initial dose: Subjects who met the efficacy response in the previous study continued to receive their previous blinded dose at entry into this study.
Dose titration was performed in an open label fashion in 10 mg increments as follows: • Nonresponders, who received initial doses of open-label E5501 10 mg in the previous study, could have their dose increased in 10 mg increments every 14 days to a maximum of 40 mg/day in the absence of platelet response.
Subjects were also permitted to reduce their dose of ITP-directed concomitant therapy (e.g., steroids). The overall goal of any dose modification was to maintain the subject's peripheral platelet count above 50,000/mm^3 and to decrease the need for ITP-directed concomitant medications (if applicable). During any dose modification of study drug or ITP-directed concomitant medications, platelet counts were collected every week. After platelet counts stabilized, platelet count collection reverted to a biweekly schedule.
Assessments: Study subjects were evaluated for safety and efficacy (including platelet count) on day 1 and then biweekly while receiving treatment.
Two primary analysis populations were used to summarize safety and effectiveness: • Safety population: all subjects who received at least 1 dose of study drug and had at least 1 post-treatment safety assessment in either the previous or this study. All safety analyses were performed using this population. • Full Analysis Set (FAS): all subjects who participated in both studies and who had at least one post-treatment effectiveness assessment in this study. All efficacy analyses were performed using this population.
Secondary Endpoints: The secondary endpoints were markers of effectiveness, including: • 1. Changes in platelet count from baselines of the previous study and of this study by study visit; and • 2. Durable platelet response, defined as subjects who had at least 3 platelet count assessments in the last 14 weeks of the 24-week treatment period, and whose platelet count was at a response level for at least 75% of the time in the last 14 weeks during the 24-week treatment period, with no rescue medication used during the 24-week treatment period. Platelet response level was defined as ≧50,000/mm^3 for subjects whose baseline platelet count was <30,000/mm^3 in the previous study or an increase in baseline platelet count of ≧20,000/mm^3 for subjects receiving steroids whose baseline platelet count in the previous study was ≧30,000/mm^3 but <50,000/mm^3; • 3. Transient platelet response, defined as achievement of a response level for any 4 consecutive weeks during the 24-week treatment period without durable platelet response in the absence of any rescue medication; • 4. Overall platelet response (durable platelet response plus transient platelet response); • 5. Maintenance of platelet response, defined as subjects who were responders in the previous study (e.g., responders on day 28 of the previous study) who achieved a durable response in this study and had no upward dose titration of E5501 during this study; • 6. Permanent discontinuation of steroid use, defined as subjects who used steroid medication within the 2-week period before their first dose of study drug in this study, and for whom concomitant steroid medication was discontinued at least 8 weeks before the end of the treatment period; • 7. Reduction of steroid use by at least 50%. […]

[1] = FAS, 501-CL-003 Nonresponders (N = 28)
[2] = FAS, 501-CL-003 Responders (N = 25)
[3] = FAS, <3 Lines of Prior Therapy, E5501 Total, N assessed 18
[4] = FAS, <3 Lines of Prior Therapy, Non-Responders, N assessed 6
[5] = FAS, <3 Lines of Prior Therapy, Responders, N assessed 12
[6] = FAS, Baseline PC >15K/mm^3, E5501 Total, N assessed 38
[7] = FAS, Baseline PC >15K/mm^3, Non-Responders, N assessed 19

Compound: O=C(Nc1nc(-c2cc(Cl)cs2)c(N2CCN(C3CCCCC3)CC2)s1)c1cnc(N2CCC(C(=O)O)CC2)c(Cl)c1 [E5501, 1-(3-chloro-5-{[4-(4-chlorothiophen-2-yl)-5-(4-cyclohexylpiperazin-1-yl)thiazol-2-yl]carbamoyl}pyridine-2-yl)piperidine-4-carboxylic acid]
- Decreased use of concomitant steroid medication by ≧50%, No (E5501 Total): 11 (45.8) n (%)
- Decreased use of concomitant steroid medication by ≧50%, Yes (E5501 Total): 13 (54.2) n (%)
- Permanently discontinued steroid use, No (E5501 Total): 16 (66.7) n (%)
- Permanently discontinued steroid use, Yes (E5501 Total): 8 (33.3) n (%)
- Decreased use of concomitant steroid medication by ≧50%, No (Nonresponders): 6 (50.0) n (%)
- Decreased use of concomitant steroid medication by ≧50%, Yes (Nonresponders): 6 (50.0) n (%)
- Permanently discontinued steroid use, No (Nonresponders): 8 (66.7) n (%)
- Permanently discontinued steroid use, Yes (Nonresponders): 4 (33.3) n (%)
- Decreased use of concomitant steroid medication by ≧50%, No (Responders): 5 (41.7) n (%)
- Decreased use of concomitant steroid medication by ≧50%, Yes (Responders): 7 (58.3) n (%)
- Permanently discontinued steroid use, No (Responders): 8 (66.7) n (%)
- Permanently discontinued steroid use, Yes (Responders): 4 (33.3) n (%)
- subjects who required upward dose titration (25 responders): 20%
- subjects who required upward dose titration (28 non-responders): 75%
- durable response rate (FAS, all subjects): 52.8%
- durable response rate (FAS, non-responders in previous study): 35.7%
- durable response rate (FAS, responders in previous study): 72.0%
- subjects who achieved an overall platelet response after the titration (13 subjects who required and did receive a dose titration): 76.9%
- median platelet counts maintained throughout the study (FAS): above 50,000 /mm^3
- Upward titration required and implemented, % of subjects (FAS, 501-CL-003 Nonresponders): (47.6) %
- Upward titration required and implemented, n of subjects (FAS, 501-CL-003 Nonresponders): 10/21
- Upward titration required and implemented; subject achieved overall response, % of subjects (FAS, 501-CL-003 Nonresponders): (70.0) %
- Upward titration required and implemented; subject achieved overall response, n of subjects (FAS, 501-CL-003 Nonresponders): 7/10
- Upward titration required, % of subjects [1]: (75.0) %
- Upward titration required, n of subjects [1]: 21
- Upward titration required and implemented, % of subjects (FAS, 501-CL-003 Responders): (60.0) %
- Upward titration required and implemented, n of subjects (FAS, 501-CL-003 Responders): 3/5
- Upward titration required and implemented; subject achieved overall response, % of subjects (FAS, 501-CL-003 Responders): (100.0) %
- Upward titration required and implemented; subject achieved overall response, n of subjects (FAS, 501-CL-003 Responders): 3/3
- Upward titration required, % of subjects [2]: (20.0) %
- Upward titration required, n of subjects [2]: 5
- Durable Platelet Response No, % (FAS, E5501 Total (N=53)): (47.2) %
- Durable Platelet Response Yes, % (FAS, E5501 Total (N=53)): (52.8) %
- Transient Platelet Response Yes, % (FAS, E5501 Total (N=53)): (22.6) %
- With Overall Response No, % (FAS, E5501 Total (N=53)): (24.5) %
- With Overall Response Yes, % (FAS, E5501 Total (N=53)): (75.5) %
- Transient Platelet Response No, % (FAS, E5501 Total (N=53)): (77.4) %
- Durable Platelet Response No, % (FAS, Non-Responders (N=28)): (64.3) %
- Durable Platelet Response Yes, % (FAS, Non-Responders (N=28)): (35.7) %
- Transient Platelet Response Yes, % (FAS, Non-Responders (N=28)): (28.6) %
- With Overall Response No, % (FAS, Non-Responders (N=28)): (35.7) %
- With Overall Response Yes, % (FAS, Non-Responders (N=28)): (64.3) %
- Transient Platelet Response No, % (FAS, Non-Responders (N=28)): (71.4) %
- Durable Platelet Response No, % (FAS, Responders (N=25)): (28.0) %
- Durable Platelet Response Yes, % (FAS, Responders (N=25)): (72.0) %
- Transient Platelet Response Yes, % (FAS, Responders (N=25)): (16.0) %
- With Overall Response No, % (FAS, Responders (N=25)): (12.0) %
- With Overall Response Yes, % (FAS, Responders (N=25)): (88.0) %
- Transient Platelet Response No, % (FAS, Responders (N=25)): (84.0) %
- Upward titration required and implemented, % of subjects (FAS, Total): (50.0) %
- Upward titration required and implemented, n of subjects (FAS, Total): 13/26
- Upward titration required and implemented; subject achieved overall response, % of subjects (FAS, Total): (76.9) %
- Upward titration required and implemented; subject achieved overall response, n of subjects (FAS, Total): 10/13
- Upward titration required, % of subjects (FAS, Total (N = 53)): (49.0) %
- Upward titration required, n of subjects (FAS, Total (N = 53)): 26
- Durable Platelet Response, n (%) with response [3]: 12 (66.7) n (%)
- Overall Platelet Response, n (%) with response [3]: 15 (83.3) n (%)
- Durable Platelet Response, n (%) with response [4]: 3 (50.0) n (%)
- Overall Platelet Response, n (%) with response [4]: 4 (66.7) n (%)
- Durable Platelet Response, n (%) with response [5]: 9 (75.0) n (%)
- Overall Platelet Response, n (%) with response [5]: 11 (91.7) n (%)
- Durable Platelet Response, n (%) with response [6]: 24 (63.2) n (%)
- Overall Platelet Response, n (%) with response [6]: 33 (86.8) n (%)
- Durable Platelet Response, n (%) with response [7]: 9 (47.4) n (%)
- Overall Platelet Response, n (%) with response [7]: 15 (78.9) n (%)
